Source: PubChem BioAssay (NCI)
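Following 48 hours of exposure in 96-well plates, responses at five concentrations were used to interpolate endpoints linearly. TGI is the concentration that stops growth completely.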

Columns and labels:
Assay in all cases: inhibition of tumour cell growth, NCI panel, 48 h
A549 NSCLC = tested on: A549 NSCLC
SF-295 CNS = tested on: SF-295 CNS
MDA-N = tested on: MDA-N
OVCAR-4 ovarian = tested on: OVCAR-4 ovarian
MDA-MB-231 breast = tested on: MDA-MB-231 breast
HS 578T breast = tested on: HS 578T breast
U251 CNS = tested on: U251 CNS
RPMI-8226 leukemia = tested on: RPMI-8226 leukemia
UO-31 renal = tested on: UO-31 renal
MDA-MB-435 = tested on: MDA-MB-435
UACC-62 melanoma = tested on: UACC-62 melanoma
OVCAR-3 ovarian = tested on: OVCAR-3 ovarian
NCI-H226 lung = tested on: NCI-H226 lung
DU-145 prostate = tested on: DU-145 prostate
KM12 colon = tested on: KM12 colon
SK-MEL-5 melanoma = tested on: SK-MEL-5 melanoma
LOX IMVI melanoma = tested on: LOX IMVI melanoma
OVCAR-5 ovarian = tested on: OVCAR-5 ovarian
SR leukemia = tested on: SR leukemia
NCI-H522 lung = tested on: NCI-H522 lung
K-562 leukemia = tested on: K-562 leukemia
HCT-116 colon = tested on: HCT-116 colon
IGROV1 ovarian = tested on: IGROV1 ovarian
MALME-3M melanoma = tested on: MALME-3M melanoma
HL-60(TB) leukemia = tested on: HL-60(TB) leukemia
T-47D breast = tested on: T-47D breast
HCC-2998 colon = tested on: HCC-2998 colon
TK-10 renal = tested on: TK-10 renal
786-0 renal = tested on: 786-0 renal
SK-MEL-28 melanoma = tested on: SK-MEL-28 melanoma
SNB-19 CNS = tested on: SNB-19 CNS
NCI-H460 lung = tested on: NCI-H460 lung
EKVX NSCLC = tested on: EKVX NSCLC
ACHN renal = tested on: ACHN renal
M14 melanoma = tested on: M14 melanoma
SF-539 CNS = tested on: SF-539 CNS
HT29 colon = tested on: HT29 colon
HCT-15 colon = tested on: HCT-15 colon
SW-620 colon = tested on: SW-620 colon
MCF7 breast = tested on: MCF7 breast
SN12C renal = tested on: SN12C renal
NCI-H23 lung = tested on: NCI-H23 lung
BT-549 breast = tested on: BT-549 breast
SF-268 CNS = tested on: SF-268 CNS
CAKI-1 renal = tested on: CAKI-1 renal
UACC-257 melanoma = tested on: UACC-257 melanoma
OVCAR-8 ovarian = tested on: OVCAR-8 ovarian
CCRF-CEM leukemia = tested on: CCRF-CEM leukemia
HOP-62 NSCLC = tested on: HOP-62 NSCLC
A498 renal = tested on: A498 renal
HOP-92 NSCLC = tested on: HOP-92 NSCLC
NCI/ADR-RES ovarian = tested on: NCI/ADR-RES ovarian
SK-MEL-2 melanoma = tested on: SK-MEL-2 melanoma
SK-OV-3 ovarian = tested on: SK-OV-3 ovarian
PC-3 prostate = tested on: PC-3 prostate
RXF 393 renal = tested on: RXF 393 renal
SNB-75 CNS = tested on: SNB-75 CNS
MOLT-4 leukemia = tested on: MOLT-4 leukemia
COLO 205 colon = tested on: COLO 205 colon

## CC1(O)OC(=O)C2=C1CCC1C2CCC2(C)C(O)CCC12 (stereo unspecified)
A549 NSCLC
  TGI: > 100 µM
SF-295 CNS
  TGI: > 100 µM
MDA-N
  TGI: > 100 µM
OVCAR-4 ovarian
  TGI: > 100 µM
MDA-MB-231 breast
  TGI: > 100 µM
HS 578T breast
  TGI: > 100 µM
U251 CNS
  TGI: > 100 µM
RPMI-8226 leukemia
  TGI: > 100 µM
UO-31 renal
  TGI: > 100 µM
MDA-MB-435
  TGI: > 100 µM
UACC-62 melanoma
  TGI: > 100 µM
OVCAR-3 ovarian
  TGI: > 100 µM
NCI-H226 lung
  TGI: > 100 µM
DU-145 prostate
  TGI: > 100 µM
KM12 colon
  TGI: > 100 µM
SK-MEL-5 melanoma
  TGI: > 100 µM
LOX IMVI melanoma
  TGI: > 100 µM
OVCAR-5 ovarian
  TGI: > 100 µM
SR leukemia
  TGI: > 100 µM
NCI-H522 lung
  TGI: > 100 µM
K-562 leukemia
  TGI: > 100 µM
HCT-116 colon
  TGI: > 100 µM
IGROV1 ovarian
  TGI: > 100 µM
MALME-3M melanoma
  TGI: > 100 µM
HL-60(TB) leukemia
  TGI: > 100 µM
T-47D breast
  TGI: > 100 µM
HCC-2998 colon
  TGI: > 100 µM
TK-10 renal
  TGI: > 100 µM
786-0 renal
  TGI: > 100 µM
SK-MEL-28 melanoma
  TGI: > 100 µM
SNB-19 CNS
  TGI: > 100 µM
NCI-H460 lung
  TGI: > 100 µM
EKVX NSCLC
  TGI: > 100 µM
ACHN renal
  TGI: > 100 µM
M14 melanoma
  TGI: > 100 µM
SF-539 CNS
  TGI: > 100 µM
HT29 colon
  TGI: > 100 µM
HCT-15 colon
  TGI: > 100 µM
SW-620 colon
  TGI: > 100 µM
MCF7 breast
  TGI: > 100 µM
SN12C renal
  TGI: > 100 µM
NCI-H23 lung
  TGI: > 100 µM
BT-549 breast
  TGI: > 100 µM
SF-268 CNS
  TGI: > 100 µM
CAKI-1 renal
  TGI: > 100 µM
UACC-257 melanoma
  TGI: > 100 µM
OVCAR-8 ovarian
  TGI: > 100 µM
CCRF-CEM leukemia
  TGI: > 100 µM
HOP-62 NSCLC
  TGI: > 100 µM
A498 renal
  TGI: > 100 µM
HOP-92 NSCLC
  TGI: > 100 µM
NCI/ADR-RES ovarian
  TGI: > 100 µM

## CC1OC(OC2C(OC(=O)[C@@H]3CC(C)(C)C[C@H]4C5=CC[C@@H]6[C@@]7(C)C[C@H](O)[C@H](OC8OC(CO)C(O)C(O)C8O)[C@@](C)(CO)[C@@H]7[C@H](O)C[C@@]6(C)[C@]5(C)CC[C@@]34C)OCC(O)C2O)C(O)C(O)C1O (stereo partly specified)
SF-295 CNS
  TGI: > 7.5 µM
MDA-N
  TGI: > 7.5 µM
OVCAR-4 ovarian
  TGI: > 7.5 µM
MDA-MB-231 breast
  TGI: > 7.5 µM
HS 578T breast
  TGI: > 7.5 µM
SK-MEL-2 melanoma
  TGI: > 7.5 µM
U251 CNS
  TGI: > 7.5 µM
SK-OV-3 ovarian
  TGI: > 7.5 µM
UO-31 renal
  TGI: > 7.5 µM
MDA-MB-435
  TGI: > 7.5 µM
PC-3 prostate
  TGI: > 7.5 µM
UACC-62 melanoma
  TGI: > 7.5 µM
OVCAR-3 ovarian
  TGI: > 7.5 µM
NCI-H226 lung
  TGI: > 7.5 µM
RXF 393 renal
  TGI: > 7.5 µM
SNB-75 CNS
  TGI: > 7.5 µM
DU-145 prostate
  TGI: > 7.5 µM
KM12 colon
  TGI: > 7.5 µM
SK-MEL-5 melanoma
  TGI: > 7.5 µM
LOX IMVI melanoma
  TGI: > 7.5 µM
OVCAR-5 ovarian
  TGI: > 7.5 µM
MOLT-4 leukemia
  TGI: > 7.5 µM
NCI-H522 lung
  TGI: > 7.5 µM
K-562 leukemia
  TGI: > 7.5 µM
HCT-116 colon
  TGI: > 7.5 µM
IGROV1 ovarian
  TGI: > 7.5 µM
MALME-3M melanoma
  TGI: > 7.5 µM
HL-60(TB) leukemia
  TGI: > 7.5 µM
T-47D breast
  TGI: > 7.5 µM
HCC-2998 colon
  TGI: > 7.5 µM
TK-10 renal
  TGI: > 7.5 µM
786-0 renal
  TGI: > 7.5 µM
SNB-19 CNS
  TGI: > 7.5 µM
NCI-H460 lung
  TGI: > 7.5 µM
EKVX NSCLC
  TGI: > 7.5 µM
ACHN renal
  TGI: > 7.5 µM
M14 melanoma
  TGI: > 7.5 µM
SF-539 CNS
  TGI: > 7.5 µM
HT29 colon
  TGI: > 7.5 µM
HCT-15 colon
  TGI: > 7.5 µM
SW-620 colon
  TGI: > 7.5 µM
COLO 205 colon
  TGI: > 7.5 µM
MCF7 breast
  TGI: > 7.5 µM
SN12C renal
  TGI: > 7.5 µM
NCI-H23 lung
  TGI: > 7.5 µM
BT-549 breast
  TGI: > 7.5 µM
SF-268 CNS
  TGI: > 7.5 µM
CAKI-1 renal
  TGI: > 7.5 µM
UACC-257 melanoma
  TGI: > 7.5 µM
OVCAR-8 ovarian
  TGI: > 7.5 µM
CCRF-CEM leukemia
  TGI: > 7.5 µM
HOP-62 NSCLC
  TGI: > 7.5 µM
HOP-92 NSCLC
  TGI: > 7.5 µM
NCI/ADR-RES ovarian
  TGI: > 7.5 µM
